Source: ChEMBL document CHEMBL1201862, “PubChem BioAssay data set” (2004)
The source made the active and inactive calls.

How the values were obtained:
fMet-Leu-Phe receptor = fMet-Leu-Phe receptor (Homo sapiens, UniProt P21462); assay: FPR ligands, dose response (AID 519); type: functional
[1] = biological target: Peroxisome proliferator-activated receptor gamma/Nuclear receptor coactivator 3 (Homo sapiens, UniProt P37231); assay: (§1) TR-FRET dose response biochemical High Throughput Screening assay for agonists of the steroid receptor coactivator 3 (SRC-3) recruitment by the peroxisome proliferator-activated receptor gamma (PPAR gamma): non-selective agonists. [Related pubchem assays: 1301 (Confirmation screen.), 1048 (Primary screen.)]; type: functional
Sequence of Peroxisome proliferator-activated receptor gamma/Nuclear receptor coactivator 3 (P37231 whole entry): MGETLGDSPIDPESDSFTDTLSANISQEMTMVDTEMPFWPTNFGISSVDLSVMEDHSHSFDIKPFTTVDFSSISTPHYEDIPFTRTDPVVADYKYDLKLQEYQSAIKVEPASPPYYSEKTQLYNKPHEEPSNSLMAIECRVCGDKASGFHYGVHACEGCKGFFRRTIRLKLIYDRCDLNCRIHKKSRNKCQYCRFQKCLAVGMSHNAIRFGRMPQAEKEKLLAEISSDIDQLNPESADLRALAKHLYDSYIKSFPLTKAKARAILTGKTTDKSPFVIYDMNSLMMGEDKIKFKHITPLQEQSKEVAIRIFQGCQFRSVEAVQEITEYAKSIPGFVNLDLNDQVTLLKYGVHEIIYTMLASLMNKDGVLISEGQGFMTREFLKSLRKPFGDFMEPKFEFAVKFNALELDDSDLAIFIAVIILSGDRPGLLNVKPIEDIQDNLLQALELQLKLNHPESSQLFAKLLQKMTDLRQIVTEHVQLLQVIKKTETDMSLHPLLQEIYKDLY
Sequence of Peroxisome proliferator-activated receptor gamma/Nuclear receptor coactivator 3 (Q9Y6Q9 whole entry, further chain): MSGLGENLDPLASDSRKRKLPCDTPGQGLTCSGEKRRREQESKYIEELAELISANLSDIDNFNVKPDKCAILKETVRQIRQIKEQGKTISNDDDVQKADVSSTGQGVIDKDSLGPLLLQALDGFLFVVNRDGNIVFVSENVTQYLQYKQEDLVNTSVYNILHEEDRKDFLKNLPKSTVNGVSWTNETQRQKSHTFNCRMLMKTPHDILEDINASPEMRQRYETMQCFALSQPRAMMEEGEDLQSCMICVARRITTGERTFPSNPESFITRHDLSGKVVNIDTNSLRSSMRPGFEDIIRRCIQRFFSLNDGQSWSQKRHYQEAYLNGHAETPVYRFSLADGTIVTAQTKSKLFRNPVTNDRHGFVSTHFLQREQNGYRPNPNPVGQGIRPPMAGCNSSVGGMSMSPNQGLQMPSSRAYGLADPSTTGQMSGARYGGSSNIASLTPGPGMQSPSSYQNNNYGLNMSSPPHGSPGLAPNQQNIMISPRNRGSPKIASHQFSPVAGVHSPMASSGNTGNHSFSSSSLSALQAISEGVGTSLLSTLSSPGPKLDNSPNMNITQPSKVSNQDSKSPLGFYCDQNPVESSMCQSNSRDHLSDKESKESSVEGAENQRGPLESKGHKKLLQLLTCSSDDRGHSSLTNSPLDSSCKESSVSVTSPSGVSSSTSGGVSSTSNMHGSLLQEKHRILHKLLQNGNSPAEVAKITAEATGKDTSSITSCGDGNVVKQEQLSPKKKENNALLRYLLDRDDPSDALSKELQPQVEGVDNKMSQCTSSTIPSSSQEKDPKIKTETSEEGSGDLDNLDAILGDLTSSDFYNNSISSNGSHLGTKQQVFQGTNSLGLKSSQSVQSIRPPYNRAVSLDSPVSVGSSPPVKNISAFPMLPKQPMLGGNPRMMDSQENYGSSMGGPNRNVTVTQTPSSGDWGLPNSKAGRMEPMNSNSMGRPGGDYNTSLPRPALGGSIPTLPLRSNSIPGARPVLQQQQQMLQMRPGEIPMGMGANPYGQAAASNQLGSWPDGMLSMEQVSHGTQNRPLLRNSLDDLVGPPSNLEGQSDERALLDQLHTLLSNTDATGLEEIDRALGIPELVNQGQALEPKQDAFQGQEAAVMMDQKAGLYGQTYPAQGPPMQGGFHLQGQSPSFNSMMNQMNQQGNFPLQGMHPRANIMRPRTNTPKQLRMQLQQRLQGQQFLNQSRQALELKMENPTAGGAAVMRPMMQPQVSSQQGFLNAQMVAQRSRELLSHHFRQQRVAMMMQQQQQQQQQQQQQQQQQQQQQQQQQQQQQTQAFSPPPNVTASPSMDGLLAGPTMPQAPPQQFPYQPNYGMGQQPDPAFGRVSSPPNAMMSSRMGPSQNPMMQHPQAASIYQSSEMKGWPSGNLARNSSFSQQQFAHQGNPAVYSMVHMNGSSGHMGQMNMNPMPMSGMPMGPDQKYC

[2] = biological target: Peroxisome proliferator-activated receptor gamma/Nuclear receptor corepressor 2 (Homo sapiens, UniProt P37231+Q9Y618); type: functional
[3] = biological target: Peroxisome proliferator-activated receptor gamma/Nuclear receptor coactivator 1 (Homo sapiens, UniProt P37231); assay: as §1, with “1 (SRC-1)” for “3 (SRC-3)”, “assays (depositor defined):AID1300, AID1808, AID504735, AID631]” for “assays: 1301 (Confirmation screen.), 1048 (Primary screen.)]”; type: protein assay
Sequence of Peroxisome proliferator-activated receptor gamma/Nuclear receptor coactivator 1 (P37231 whole entry): as the sequence (P37231 whole entry) above
Sequence of Peroxisome proliferator-activated receptor gamma/Nuclear receptor coactivator 1 (Q15788 whole entry, further chain): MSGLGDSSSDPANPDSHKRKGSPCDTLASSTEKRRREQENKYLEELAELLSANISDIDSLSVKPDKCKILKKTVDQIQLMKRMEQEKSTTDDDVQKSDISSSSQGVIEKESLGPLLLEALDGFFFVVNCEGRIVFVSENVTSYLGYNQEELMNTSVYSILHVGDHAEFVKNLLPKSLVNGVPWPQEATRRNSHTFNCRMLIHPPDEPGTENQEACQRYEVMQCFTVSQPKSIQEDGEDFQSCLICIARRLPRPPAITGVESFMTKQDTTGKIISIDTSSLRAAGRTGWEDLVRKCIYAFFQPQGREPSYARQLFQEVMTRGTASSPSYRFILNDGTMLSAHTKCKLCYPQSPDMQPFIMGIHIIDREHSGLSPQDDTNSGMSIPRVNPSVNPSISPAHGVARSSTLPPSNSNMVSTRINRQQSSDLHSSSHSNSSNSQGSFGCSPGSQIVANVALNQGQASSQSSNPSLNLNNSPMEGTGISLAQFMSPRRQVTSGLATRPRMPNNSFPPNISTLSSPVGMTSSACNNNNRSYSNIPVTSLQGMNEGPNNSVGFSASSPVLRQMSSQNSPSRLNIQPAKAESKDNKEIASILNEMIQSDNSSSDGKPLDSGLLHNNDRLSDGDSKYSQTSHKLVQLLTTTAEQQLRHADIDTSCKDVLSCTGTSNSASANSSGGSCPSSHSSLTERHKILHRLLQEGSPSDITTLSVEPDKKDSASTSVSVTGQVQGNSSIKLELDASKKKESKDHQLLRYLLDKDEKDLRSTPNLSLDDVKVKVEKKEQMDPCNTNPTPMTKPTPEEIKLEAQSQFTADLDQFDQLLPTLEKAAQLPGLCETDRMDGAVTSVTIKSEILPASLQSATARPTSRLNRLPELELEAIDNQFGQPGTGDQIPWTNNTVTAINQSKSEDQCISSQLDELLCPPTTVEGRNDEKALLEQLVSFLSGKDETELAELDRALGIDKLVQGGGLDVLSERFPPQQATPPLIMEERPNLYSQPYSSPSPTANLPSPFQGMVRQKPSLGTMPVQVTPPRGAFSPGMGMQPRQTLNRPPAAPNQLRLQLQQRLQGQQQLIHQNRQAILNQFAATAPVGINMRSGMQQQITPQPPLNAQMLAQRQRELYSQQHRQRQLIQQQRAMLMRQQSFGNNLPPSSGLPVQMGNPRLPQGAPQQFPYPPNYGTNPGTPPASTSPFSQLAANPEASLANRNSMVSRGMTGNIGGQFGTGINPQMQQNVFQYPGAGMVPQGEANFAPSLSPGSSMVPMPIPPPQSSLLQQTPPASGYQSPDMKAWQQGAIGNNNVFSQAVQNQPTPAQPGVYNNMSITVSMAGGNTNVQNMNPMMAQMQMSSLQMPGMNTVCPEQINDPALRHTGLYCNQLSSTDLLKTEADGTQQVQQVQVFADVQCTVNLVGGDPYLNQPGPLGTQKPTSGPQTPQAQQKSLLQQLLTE

[4] = biological target: Photoreceptor-specific nuclear receptor (Homo sapiens, UniProt Q9Y5X4); type: functional;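 note: potency for compounds that break the NR2E3 corepressor complex and count as activators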
Sequence of Photoreceptor-specific nuclear receptor (Q9Y5X4 whole entry): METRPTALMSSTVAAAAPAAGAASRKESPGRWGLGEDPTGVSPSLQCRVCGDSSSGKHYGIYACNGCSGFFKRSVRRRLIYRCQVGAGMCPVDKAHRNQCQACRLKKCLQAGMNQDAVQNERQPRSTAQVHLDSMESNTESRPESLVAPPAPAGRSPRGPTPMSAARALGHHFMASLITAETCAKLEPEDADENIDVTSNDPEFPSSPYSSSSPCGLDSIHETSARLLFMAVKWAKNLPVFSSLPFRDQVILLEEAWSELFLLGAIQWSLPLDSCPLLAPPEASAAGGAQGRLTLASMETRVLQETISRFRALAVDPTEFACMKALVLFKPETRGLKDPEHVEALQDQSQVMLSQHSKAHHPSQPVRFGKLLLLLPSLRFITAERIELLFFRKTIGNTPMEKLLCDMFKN

[5] = biological target: Peroxisome proliferator-activated receptor gamma/Nuclear receptor coactivator 2 (Homo sapiens, UniProt P37231); assay: TR-FRET dose response biochemical High Throughput Screening assay for agonists of the steroid receptor coactivator 2 (SRC-2) recruitment by the peroxisome proliferator-activated receptor gamma (PPAR gamma): non-selective agonists. [Related pubchem assays: 1297, 1032 ]; type: functional
Vero = Vero cell cytotoxicity, cytotoxicity control for flavivirus capping enzyme inhibitors (AID 588742); type: functional; conditions: Chlorocebus sabaeus
Beta-galactosidase = Beta-galactosidase (Escherichia coli, UniProt Q8VNN2); assay: beta-galactosidase enzyme inhibitors and activators, dose response, artefact control for CCR6 antagonist project, biochemical, E. coli enzyme, set 3 (AID 504712); type: functional
Aspartyl aminopeptidase = biological target: T1, Aspartyl aminopeptidase (Plasmodium falciparum 3D7, UniProt Q8I2J3); assay: Counterscreen for inhibitors of M1 and M17 aminopeptidases: QFRET-based biochemical high throughput dose response assay for inhibitors of the Plasmodium falciparum M18 Aspartyl Aminopeptidase (PFM18AAP). [Related PubChem assays: 1619 (Screening assay (M17LAP inhibitors).), 1445 (Screening assay (M1AAP inhibitors).)]
T1 sequence (Q8I2J3 whole entry): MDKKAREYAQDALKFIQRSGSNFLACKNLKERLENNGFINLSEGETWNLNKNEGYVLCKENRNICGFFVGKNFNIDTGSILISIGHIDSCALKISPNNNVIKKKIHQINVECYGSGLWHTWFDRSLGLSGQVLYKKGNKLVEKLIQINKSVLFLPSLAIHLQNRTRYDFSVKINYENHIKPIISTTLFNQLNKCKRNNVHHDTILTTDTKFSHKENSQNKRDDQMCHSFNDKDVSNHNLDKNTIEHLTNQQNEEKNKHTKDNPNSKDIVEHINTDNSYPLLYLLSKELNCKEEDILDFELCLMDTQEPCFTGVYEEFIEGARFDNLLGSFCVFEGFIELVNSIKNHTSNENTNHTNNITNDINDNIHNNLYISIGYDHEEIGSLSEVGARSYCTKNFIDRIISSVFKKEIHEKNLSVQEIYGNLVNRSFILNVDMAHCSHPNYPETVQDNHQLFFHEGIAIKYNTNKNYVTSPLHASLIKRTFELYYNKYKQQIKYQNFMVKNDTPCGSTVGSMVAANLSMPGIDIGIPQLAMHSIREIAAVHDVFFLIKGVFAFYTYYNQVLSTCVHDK

[6] = biological target: G-protein coupled receptor 55 (Homo sapiens, UniProt Q9Y2T6); assay: GPR55 agonists via beta-arrestin recruitment, primary screen, imaging, U2OS cells, beta-arrestin-GFP redistribution (AID 1961); type: functional
Leucine aminopeptidase = biological target: T2, Leucine aminopeptidase (Plasmodium falciparum 3D7, UniProt Q8IL11); assay: P. falciparum M17LAP inhibitors, primary screen, biochemical, fluorogenic H-Leu-NHMec substrate, 1536-well (AID 1619); type: functional
T2 sequence (Q8IL11 whole entry): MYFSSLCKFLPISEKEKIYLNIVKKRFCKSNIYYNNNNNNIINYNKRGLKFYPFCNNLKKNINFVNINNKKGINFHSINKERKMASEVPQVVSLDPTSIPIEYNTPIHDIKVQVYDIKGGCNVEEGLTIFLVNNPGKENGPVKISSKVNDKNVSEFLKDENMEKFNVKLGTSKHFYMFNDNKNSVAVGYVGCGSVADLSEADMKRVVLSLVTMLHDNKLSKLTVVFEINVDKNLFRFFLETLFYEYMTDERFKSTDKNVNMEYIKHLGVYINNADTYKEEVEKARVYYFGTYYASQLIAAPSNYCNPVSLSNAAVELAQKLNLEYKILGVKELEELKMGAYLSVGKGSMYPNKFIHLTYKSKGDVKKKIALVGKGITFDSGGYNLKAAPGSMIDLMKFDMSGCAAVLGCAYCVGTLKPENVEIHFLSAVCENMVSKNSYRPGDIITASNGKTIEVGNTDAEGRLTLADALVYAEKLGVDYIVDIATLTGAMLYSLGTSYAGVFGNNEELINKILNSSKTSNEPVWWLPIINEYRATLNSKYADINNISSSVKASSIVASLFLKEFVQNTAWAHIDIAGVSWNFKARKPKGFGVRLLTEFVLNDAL

Procathepsin L = Procathepsin L (Homo sapiens, UniProt P07711); assay: cathepsin L inhibitors, dose response, counter-screen for M1/M17 aminopeptidase inhibitor project, biochemical, QFRET, 1536-well (AID 2214)
Sequence of Procathepsin L (P07711 whole entry): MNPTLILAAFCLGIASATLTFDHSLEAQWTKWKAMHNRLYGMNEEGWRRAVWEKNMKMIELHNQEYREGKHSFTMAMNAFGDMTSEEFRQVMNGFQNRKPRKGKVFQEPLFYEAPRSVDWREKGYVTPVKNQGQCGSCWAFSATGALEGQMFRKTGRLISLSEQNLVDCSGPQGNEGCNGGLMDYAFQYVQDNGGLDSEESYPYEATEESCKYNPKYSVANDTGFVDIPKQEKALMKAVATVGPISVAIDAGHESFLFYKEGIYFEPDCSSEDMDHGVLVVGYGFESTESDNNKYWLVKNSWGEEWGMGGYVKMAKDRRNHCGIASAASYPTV

Streptokinase A = biological target: T3, Streptokinase A (Streptococcus pyogenes serotype M1, UniProt P10520); assay: S. pyogenes streptokinase expression inhibitors, potency, dose response, plasminogen activation absorbance, OD405 (AID 1914); type: functional, Streptococcus pyogenes M1 GAS;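 note: secreted streptokinase activity via plasminogen activation per viability signal from cell pellet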
T3 sequence (P10520 whole entry): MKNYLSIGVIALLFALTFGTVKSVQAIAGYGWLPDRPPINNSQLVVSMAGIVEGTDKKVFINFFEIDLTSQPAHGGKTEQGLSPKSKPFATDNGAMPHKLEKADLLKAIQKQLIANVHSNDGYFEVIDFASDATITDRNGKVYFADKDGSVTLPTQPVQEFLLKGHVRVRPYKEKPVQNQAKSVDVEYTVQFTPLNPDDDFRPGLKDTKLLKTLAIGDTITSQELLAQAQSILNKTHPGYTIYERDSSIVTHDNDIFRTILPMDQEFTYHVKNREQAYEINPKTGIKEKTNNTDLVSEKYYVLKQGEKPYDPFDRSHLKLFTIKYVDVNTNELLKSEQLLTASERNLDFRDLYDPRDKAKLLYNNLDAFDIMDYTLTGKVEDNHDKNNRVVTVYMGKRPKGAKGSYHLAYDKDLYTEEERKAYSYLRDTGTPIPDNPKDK

[7] = tested on: Streptococcus sp. 'group A'; assay: growth inhibition of control SK(-) GAS strain, dose response, counter-screen for streptokinase expression inhibitor project, luminescence, kanamycin, BacTiterGlo, confirmation (AID 1900); type: functional, organism-based
Streptococcus [8] = assay: Luminescence Microorganism-Based Dose Response Follow up to Identify Compounds Cytotoxic to Streptococcus. [Related pubchem assays: 1677 (Project Summary), 1915, 1914, 1902 (Retest at Dose), 1900 (Counter Screen), 1662 (Primary HTS)]; type: functional, organism-based
Streptococcus [9] = assay: Group A Streptococcus viability loss, dose response, counter-screen for streptokinase expression inhibitor project, luminescence, BacTiterGlo (AID 1915); type: functional, organism-based;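 note: potency for reduction of bacterial viability or growth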
cells = type: functional, cell-based
J774.A1 = assay: Confirmation of image-based Screening Assay for Inhibitors of Phagocytosis. [Related pubchem assays (depositor defined):AID1029, AID1643]; type: functional, cell-based; conditions: Mus musculus
[10] = Luminescence Cell-Based Dose Response HTS to Identify Inhibitors of 5'UTR Stem-Loop Driven Prion Protein mRNA Translation in H4 Neuroglioblastoma Cells. [Related pubchem assays: 1827 (Project Summary), 1813 (Primary HTS)]; type: functional
[11] = inhibitors of firefly luciferase expression or activity, dose response, H4 neuroglioma cells, luminescence (AID 1990); type: functional, cell-based
[12] = luciferase reporter signal reduction – luminescence, H4-C neuroglioblastoma cells, dose response (AID 2458); type: functional, cell-based;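 note: H4 neuroglioblastoma cells stably carrying a luciferase reporter gene fusion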
[13] = inhibitors of SNCA 5'UTR-driven reporter translation, confirmation, H4 neuroglioma cells, luminescence (AID 1988); type: functional, cell-based
[14] = inhibitors of SNCA 5'UTR-driven translation, confirmation, luminescence, H4 neuroglioblastoma cells, dose confirmation (AID 2454); type: functional, cell-based;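 note: H4 neuroglioblastoma cells carrying an alpha-synuclein 5'UTR luciferase reporter; potency for inhibition of the luciferase signal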
[15] = biological target: Intestinal-type alkaline phosphatase (Homo sapiens, UniProt P09923); assay: Dose Response confirmation of uHTS hits from a small molecule inhibitors of human intestinal alkaline phosphatase via a luminescent assay. [Related pubchem assays (depositor defined):AID2544, AID2574]; type: functional

Sequence of fMet-Leu-Phe receptor (P21462 whole entry): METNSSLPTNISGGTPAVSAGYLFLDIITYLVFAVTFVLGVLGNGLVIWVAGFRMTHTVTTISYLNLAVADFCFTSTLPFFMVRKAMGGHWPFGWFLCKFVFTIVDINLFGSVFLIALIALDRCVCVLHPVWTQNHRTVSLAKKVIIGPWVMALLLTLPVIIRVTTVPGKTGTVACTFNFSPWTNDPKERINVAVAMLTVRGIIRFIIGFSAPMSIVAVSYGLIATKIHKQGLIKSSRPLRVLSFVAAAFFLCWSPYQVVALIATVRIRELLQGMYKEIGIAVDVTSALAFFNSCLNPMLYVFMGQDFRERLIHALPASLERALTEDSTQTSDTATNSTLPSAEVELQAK

Which Ki (fMet-Leu-Phe receptor) does the source give for COc1cccc2cc(C(=O)C3=C(O)C(=O)N(Cc4ccco4)C3c3cccnc3)oc12 (centres undefined) here?
Its Ki is > 66.7 µM (inactive).

What about the EC50 [1] of the same molecule?
The EC50 was > 79.4 µM (not active).

And the IC50 [2]?
The IC50 was 2.79 µM (active).

And the EC50 [3]?
Its EC50 is > 79.4 µM (inactive).

And the IC50 [4]?
Its IC50 is > 39.8 µM (not active).

And the EC50 [5]?
Its EC50 is > 79.4 µM (not active).

For O=C(N/N=C/c1cc([N+](=O)[O-])ccc1O)Nc1ccccc1, which CC50 (Vero) is on record?
The CC50 was 35.1 µM (active).

What about the IC50 (Beta-galactosidase) of the same molecule?
Its IC50 is > 66.6 µM (inactive).

Which results are given for O=C(CSc1nnc(Nc2ccccc2)s1)NN1C(=O)NC2(CCCCC2)C1=O?
IC50 (Aspartyl aminopeptidase): > 73.5 µM (not active); EC50 [6]: 30.3 µM (inactive); IC50 (Leucine aminopeptidase): < 1 µM (active); IC50 (Procathepsin L): > 59.6 µM (not active)

Which results are given for CC1CCN(C(=O)N2c3ccccc3Sc3ccccc32)CC1?
EC50 (Streptokinase A): > 150 µM (not active); EC50 [7]: 13.8 µM (active); EC50 (Streptococcus [8]): > 500 µM (not active); EC50 (Streptococcus [9]): 28.5 µM (active)

Which EC50 (cells) does the source give for COc1ccc(NS(=O)(=O)c2cc(C)ccc2NC(=O)c2cc(C)oc2C)cc1 here?
The EC50 was 1.07 µM (active).

And the IC50 (J774.A1)?
Its IC50 is 63.2 nM (active).

What about the EC50 [10] of the same molecule?
Its EC50 is 173 nM (active).

And the EC50 [11]?
The EC50 was 7.02 µM (active).

What about the EC50 [12] of the same molecule?
The EC50 was 651 nM (active).

What about the EC50 [13] of the same molecule?
Its EC50 is < 100 nM (active).

What about the EC50 [14] of the same molecule?
The EC50 was 1.11 µM (active).

Which IC50 [15] does the source give for Cc1ccc(S(=O)(=O)N(CC(=O)Nc2ccc(C)cc2C)C(=O)N2CCN(C)CC2)cc1 here?
Its IC50 is > 100 µM (inactive).
